Source: ChEMBL document CHEMBL4414646, “Eutypellacytosporins A-D, Meroterpenoids from the Arctic Fungus Eutypella sp. D-1” (J Nat Prod, 2019)

Key:
Format in all cases: functional, cell-based
PANC-1 = experiment: Cytotoxicity against human PANC1 cells assessed as reduction in cell viability incubated for 72 hrs by CCK8 assay; details: PANC-1, 72 h
SW1990 = experiment: Cytotoxicity against human SW1990 cells assessed as reduction in cell viability incubated for 72 hrs by CCK8 assay; details: SW1990, 72 h
Huh-7 = experiment: Cytotoxicity against human HuH7 cells assessed as reduction in cell viability incubated for 72 hrs by CCK8 assay; details: Huh-7, 72 h
DU-145 = experiment: Cytotoxicity against human DU145 cells assessed as reduction in cell viability incubated for 72 hrs by CCK8 assay; details: DU-145, 72 h

Structure (SMILES) | IC50 (PANC-1) | IC50 (SW1990) | IC50 (Huh-7) | IC50 (DU-145)
C=C1[C@@H](OC(=O)C(C)(C)[C@H](C)O)C[C@H]2C[C@@H]1[C@]21C[C@@]2(C[C@H](C)C(=O)O2)O[C@@H]1OCC1=C(/C=C/CCCCC)[C@@H](O)[C@@H]2O[C@@]23C[C@H](O)C(C)(C)O[C@@H]13 | 9.7 µM | 7.3 µM | 8.4 µM | 17.1 µM
CCCCC/C=C/C1=C(CO)[C@@H]2OC(C)(C)[C@@H](O)C[C@@]23O[C@H]3[C@@H]1O | > 50 µM | > 50 µM | > 50 µM | > 50 µM
C=C1[C@@H](OC(=O)C(C)(C)[C@H](C)O)C[C@H]2C[C@@H]1[C@]21C[C@@]2(C[C@H](C)C(=O)O2)O[C@H]1OCC1=C(/C=C/CCCCC)[C@@H](O)[C@@H]2O[C@@]23C[C@H](O)C(C)(C)O[C@@H]13 | 7.9 µM | 4.9 µM | 4.9 µM | 11 µM
C=C1[C@@H](OC(=O)C(C)(C)[C@H](C)O)C[C@H]2C[C@@H]1[C@]21C[C@]2(C[C@H](C)C(=O)O2)O[C@@H]1OCC1=C(/C=C/CCCCC)[C@@H](O)[C@@H]2O[C@@]23C[C@H](O)C(C)(C)O[C@@H]13 | 10.2 µM | 9.6 µM | 11.2 µM | 13.5 µM
C=C1[C@@H](OC(=O)C(C)(C)[C@H](C)O)C[C@H]2C[C@@H]1[C@]21C[C@]2(C[C@H](C)C(=O)O2)O[C@H]1OCC1=C(/C=C/CCCCC)[C@@H](O)[C@@H]2O[C@@]23C[C@H](O)C(C)(C)O[C@@H]13 | 7.5 µM | 8.2 µM | 9.6 µM | 13.4 µM
